The text below walks through data of ChEMBL document CHEMBL3603797, “Factors that influence T box riboswitch efficacy and tRNA affinity” (Bioorg Med Chem, 2015).

SMILES strings stand for the structures. The source made the active and inactive calls. The calls are words filed in the database; no cut-off is given here.

Assay [1] is described as follows: Binding affinity to Bacillus subtilis glyQS T box riboswitch mRNA assessed as inhibition of tRNAgly-induced glyQS transcription readthrough after 3 hrs by fluorescence assay.
Assay [2] is described as follows: Inhibition of readthrough probe 5'Cy5-CGCAccuccacuuuucuuucauaaTGCG-Dabcyl3' binding to 5'UUAUGAAAGAAAAGUGGAGGUGC3' RNA (unknown origin) by fluorescence assay.

With `CN(CCCc1ccccc1)Cc1cn(CC(O)COC(=O)NCc2ccccc2)nn1` (configuration not stated), the IC50 in assay [1] turned out to be 8 µM. The inhibition entry in assay [2] is “inactive”.
